Assay results as given in US20230339854A1, “Negative Allosteric Modulation of GluN3-Containing N-Methyl-D-Aspartate Receptors” (Emory University, priority 2020, published 2023).

Biological target: T1, human GluN1^FA,TL/GluN3A receptors (Homo sapiens, UniProt Q8TCU5)
T1 construct: Human GluN3A (NP_597702.2) and rat GluN3B (NP_579842.2) were synthesized and subcloned into SP6 plasmids; expressed in transfected cells; host or cells: Xenopus laevis oocytes, cRNA injection (GluN1:GluN3 1:3)
Experiment: Two-electrode voltage-clamp recordings of GluN1^FA,TL/GluN3A receptors in Xenopus oocytes
Format: cell-based
Conditions: 30 μM drug
Excerpt: cDNA encoding human wild-type (WT) GluN1-1a (GenBank accession numbers NP_015566, hereafter GluN1) and rat GluN1-1a (NP_058706.1) were synthesized and subcloned into pGEMHE plasmid; some experiments used the rat splice variant GluN1-4a (NP_001257531.1). Human GluN3A (NP_597702.2) and rat GluN3B (NP_579842.2) were synthesized and subcloned into SP6 plasmids. For most experiments, human GluN1 was co-expressed with human GluN3A, except for mutagenesis experiments where rat GluN1 was co-expressed with human GluN3A. Rat GluN1-4a was always expressed with rat GluN3B.
Defolliculated Xenopus laevis oocytes (stage V-VI) were obtained from Ecocyte BioScience (Austin, Texas), or prepared from commercially available Xenopus ovaries (Xenopus 1, Dexter, MI) as previously described (Hansen, et al., Mol. Pharmacol., 2013). A Drummond Nanoject II (Broomall, PA) was used to inject oocytes with cRNAs encoding GluN1 and GluN3 at a 1:3 ratio in RNase-free water. The cRNA was diluted as needed to give responses with amplitudes ranging between 200-2000 nA (0.2-10 ng total cRNA). Following cRNA injection, the oocytes were stored at 15-19° C. in Barth's solution that contained (in mM) 88 NaCl, 2.4 NaHCO3, 1 KCl, 0.33 Ca(NO3)2, 0.41 CaCl2), 0.82 MgSO4, and 5 Tris-HCl (pH 7.4 with NaOH), supplemented with 1 μg/ml streptomycin (Invitrogen, Carlsbad, CA) and 100 μg/ml gentamicin (Fisher Scientific, Pittsburgh, PA). Recordings were performed 2-5 days following cRNA microinjection at room temperature (23° C.) using a two-electrode voltage-clamp amplifier (OC725, Warner Instrument, Hamilton, CT). The signal was low-pass filtered at 10-20 Hz (4-pole, −3 dB Bessel) and digitized at the Nyquist rate using PCI-6025E or USB-6212 BNC data acquisition boards (National Instruments, Austin, TX) using EasyOocyte (http://www.easyoocyte.io/). Oocytes were placed in a custom-made chamber and continuously perfused (2.5 ml/min) with oocyte recording solution containing (in mM) 90 NaCl, 1 KCl, 10 HEPES, 0.5-1.0 BaCl2, and 0.01 EDTA (pH 7.4 with NaOH). Solutions were applied by gravity, and solution exchange was controlled through a rotary valve (Hamilton, Reno, NV). Recording electrodes were filled with 0.3-3.0 M KCl, and current responses were recorded at a holding potential of −40 mV.
Response (%)=(100−minimum)/(1+([concentration]/IC50)^nH)+minimum (2) • where nH is the Hill slope, IC50 is the concentration that produces a half-maximal effect, and minimum is the degree of residual inhibition at a saturating concentration of the negative allosteric modulator.
The afore-referenced compounds were screened in the same assay as EU1180-438 to determine their effects on hGluN1^FA,TL/hGluN3A receptors. Selected compounds that inhibited by more than 20% at the concentration at which they were initially evaluated (either 10 or 30 μM) were analyzed further, and a dose-response curve was generated to determine their IC50 values.

T1 sequence (Q8TCU5 24-1115, other chains not shown): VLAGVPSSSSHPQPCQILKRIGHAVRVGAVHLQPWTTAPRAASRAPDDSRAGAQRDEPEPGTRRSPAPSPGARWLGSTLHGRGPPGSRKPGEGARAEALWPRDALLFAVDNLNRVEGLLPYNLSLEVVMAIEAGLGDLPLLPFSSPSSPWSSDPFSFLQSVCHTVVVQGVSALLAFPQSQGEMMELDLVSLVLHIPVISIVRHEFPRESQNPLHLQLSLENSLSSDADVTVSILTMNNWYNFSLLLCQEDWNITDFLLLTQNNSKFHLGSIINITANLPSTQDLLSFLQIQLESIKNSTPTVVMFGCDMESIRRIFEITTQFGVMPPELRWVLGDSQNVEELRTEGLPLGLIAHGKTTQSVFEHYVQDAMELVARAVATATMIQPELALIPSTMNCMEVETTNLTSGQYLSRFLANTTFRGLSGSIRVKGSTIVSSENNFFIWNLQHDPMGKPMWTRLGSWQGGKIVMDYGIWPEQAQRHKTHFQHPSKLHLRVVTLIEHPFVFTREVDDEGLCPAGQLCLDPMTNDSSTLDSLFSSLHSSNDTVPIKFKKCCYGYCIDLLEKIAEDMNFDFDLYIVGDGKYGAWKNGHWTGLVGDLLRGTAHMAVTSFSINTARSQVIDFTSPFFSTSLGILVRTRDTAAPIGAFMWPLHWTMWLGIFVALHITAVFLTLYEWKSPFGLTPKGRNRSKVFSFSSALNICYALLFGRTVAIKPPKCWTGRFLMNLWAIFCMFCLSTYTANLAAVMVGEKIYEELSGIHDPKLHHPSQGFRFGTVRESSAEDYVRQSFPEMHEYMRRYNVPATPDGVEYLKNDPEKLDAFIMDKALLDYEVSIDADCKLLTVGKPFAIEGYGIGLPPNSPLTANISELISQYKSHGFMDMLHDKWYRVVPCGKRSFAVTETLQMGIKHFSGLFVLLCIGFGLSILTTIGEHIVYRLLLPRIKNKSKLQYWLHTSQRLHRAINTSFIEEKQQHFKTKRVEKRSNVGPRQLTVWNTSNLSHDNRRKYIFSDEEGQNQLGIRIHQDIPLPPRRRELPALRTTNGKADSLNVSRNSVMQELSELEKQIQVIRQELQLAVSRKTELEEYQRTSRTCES

hGluN1^FA,TL/hGluN3A (100 × Idrug/Icontrol at 30 μM drug) [%]	Structure (SMILES)
44	COc1ccc(OCC(c2ccc(OC)cc2)N2Cc3ccc(Cl)cc3C2=O)cc1 (stereo not drawn) [EU1180-516, 6-Chloro-2-(2-(4-methoxyphenoxy)-1-(4-methoxyphenyl)ethyl)isoindolin-1l-one]

Same assay, conditions: read-out: hGluN1^FA,TL/hGluN3A (100 × Idrug/Icontrol at 30 μM drug)

Structure (SMILES)	remaining activity at 30 µM [%]
COc1ccc(OCC(c2ccc(OC)cc2)N2Cc3ccc(C(F)(F)F)cc3C2=O)cc1 (stereo not drawn) [EU1180-518, 2-(2-(4-Methoxyphenoxy)-1-(4-methoxyphenyl)ethyl)-6-(trifluoromethyl)isoindolin-1-one]	86
COc1ccc(OCC(c2ccc(OC)cc2)N2Cc3ccc(F)cc3C2=O)cc1 (stereo not drawn) [EU1180-522, 6-Fluoro-2-(2-(4-methoxyphenoxy)-1-(4-methoxyphenyl)ethyl)isoindolin-1-one]	25
COc1ccc(OCC(c2ccc(OC)c(OC)c2)N2Cc3ccc(C(F)(F)F)cc3C2=O)cc1 (stereo not drawn) [EU1180-523, 2-(1-(3,4-Dimethoxyphenyl)-2-(4-methoxyphenoxy)ethyl)-6-(trifluoromethyl)isoindolin-1-one]	104
COc1ccc(OCC(c2ccc(OC)c(OC)c2)N2Cc3cc(Cl)ccc3C2=O)cc1 (stereo not drawn) [EU1180-524, 5-Chloro-2-(1-(3,4-dimethoxyphenyl)-2-(4-methoxyphenoxy)ethyl)isoindolin-1-one]	102
COc1ccc(OCC(c2ccc(OC)c(OC)c2)N2Cc3ccc(Cl)cc3C2=O)cc1 (stereo not drawn) [EU1180-525, 6-Chloro-2-(1-(3,4-dimethoxyphenyl)-2-(4-methoxyphenoxy)ethyl)isoindolin-1-one]	94
COc1ccc(OCC(c2ccc(OC)c(OC)c2)N2Cc3cc(F)ccc3C2=O)cc1 (stereo not drawn) [EU1180-528, 2-(1-(3,4-Dimethoxyphenyl)-2-(4-methoxyphenoxy)ethyl)-5-fluoroisoindolin-1-one]	94
COc1ccc(OCC(c2ccc(OC)c(OC)c2)N2Cc3ccc(F)cc3C2=O)cc1 (stereo not drawn) [EU1180-529, 2-(1-(3,4-Dimethoxyphenyl)-2-(4-methoxyphenoxy)ethyl)-6-fluoroisoindolin-1-one]	84
COc1ccc(OCC(c2ccc(OC)cc2F)N2Cc3ccccc3C2=O)cc1 (stereo not drawn) [EU1180-530, 2-(1-(2-Fluoro-4-methoxyphenyl)-2-(4-methoxyphenoxy)ethyl)isoindolin-1-one]	41
COc1ccc(OCC(c2ccc(OC)cc2F)N2Cc3ccc(C(F)(F)F)cc3C2=O)cc1 (stereo not drawn) [EU1180-531, 2-(1-(2-Fluoro-4-methoxyphenyl)-2-(4-methoxyphenoxy)ethyl)-6-(trifluoromethyl)isoindolin-1-one]	99
COc1ccc(OCC(c2ccc(OC)cc2F)N2Cc3cc(Cl)ccc3C2=O)cc1 (stereo not drawn) [EU1180-532, 5-Chloro-2-(1-(2-fluoro-4-methoxyphenyl)-2-(4-methoxyphenoxy)ethyl)isoindolin-1-one]	95
COc1ccc(OCC(c2ccc(OC)cc2F)N2Cc3ccc(Cl)cc3C2=O)cc1 (stereo not drawn) [EU1180-533, 6-Chloro-2-(1-(2-fluoro-4-methoxyphenyl)-2-(4-methoxyphenoxy)ethyl)isoindolin-1-one]	49
COc1ccc(OCC(c2ccc(OC)cc2F)N2Cc3ccc(Br)cc3C2=O)cc1 (stereo not drawn) [EU1180-535, 6-Bromo-2-(1-(2-fluoro-4-methoxyphenyl)-2-(4-methoxyphenoxy)ethyl)isoindolin-1-one]	83
COc1ccc(OCC(c2ccc(OC)cc2F)N2Cc3cc(F)ccc3C2=O)cc1 (stereo not drawn) [EU1180-536, 5-Fluoro-2-(1-(2-fluoro-4-methoxyphenyl)-2-(4-methoxyphenoxy)ethyl)isoindolin-1-one]	80
COc1ccc(OCC(c2ccc(OC)cc2F)N2Cc3ccc(F)cc3C2=O)cc1 (stereo not drawn) [EU1180-537, 6-Fluoro-2-(1-(2-fluoro-4-methoxyphenyl)-2-(4-methoxyphenoxy)ethyl)isoindolin-1-one]	66
CC(C)Oc1ccc(C(COc2ccc(OC(F)(F)F)cc2)N2Cc3ccc(C(F)(F)F)cc3C2=O)cc1 (stereo not drawn) [EU1180-539, 2-(1-(4-isopropoxyphenyl)-2-(4-(trifluoromethoxy)phenoxy)ethyl)-6-(trifluoromethyl)isoindolin-1-one]	99

Now from value to compound:

remaining activity at 30 µM [%]	Structure (SMILES)
36	Cc1cccc(OCC(c2ccc(OC(C)C)cc2)N2Cc3ccc(F)cc3C2=O)n1 (stereo not drawn) [EU1180-512, 6-fluoro-2-(1-(4-isopropoxyphenyl)-2-((6-methylpyridin-2-yl)oxy)ethyl)isoindolin-1-one]
87	Cc1cccc(OCC(c2ccc(OC(C)C)cc2)N2Cc3cc(F)ccc3C2=O)n1 (stereo not drawn) [EU1180-513, 5-fluoro-2-(1-(4-isopropoxyphenyl)-2-((6-methylpyridin-2-yl)oxy)ethyl)isoindolin-1-one]
93	Cc1cccc(OCC(c2ccc(OC(C)C)cc2)N2Cc3ccc(Br)cc3C2=O)n1 (stereo not drawn) [EU1180-514, 6-bromo-2-(1-(4-isopropoxyphenyl)-2-((6-methylpyridin-2-yl)oxy)ethyl)isoindolin-1-one]
100	Cc1cccc(OCC(c2ccc(OC(C)C)cc2)N2Cc3cc(Br)ccc3C2=O)n1 (stereo not drawn) [EU1180-515, 5-bromo-2-(1-(4-isopropoxyphenyl)-2-((6-methylpyridin-2-yl)oxy)ethyl)isoindolin-1-one]
92	COc1ccc(OCC(c2ccc(OC)cc2)N2Cc3cc(Cl)ccc3C2=O)cc1 (stereo not drawn) [EU1180-517, 5-Chloro-2-(2-(4-methoxyphenoxy)-1-(4-methoxyphenyl)ethyl)isoindolin-1-one]
90	COc1ccc(OCC(c2ccc(OC)cc2)N2Cc3cc(Br)ccc3C2=O)cc1 (stereo not drawn) [EU1180-519, 5-Bromo-2-(2-(4-methoxyphenoxy)-1-(4-methoxyphenyl)ethyl)isoindolin-1-one]
64	COc1ccc(OCC(c2ccc(OC)cc2)N2Cc3ccc(Br)cc3C2=O)cc1 (stereo not drawn) [EU1180-520, 6-Bromo-2-(2-(4-methoxyphenoxy)-1-(4-methoxyphenyl)ethyl)isoindolin-1-one]
60	COc1ccc(OCC(c2ccc(OC)cc2)N2Cc3cc(F)ccc3C2=O)cc1 (stereo not drawn) [EU1180-521, 5-Fluoro-2-(2-(4-methoxyphenoxy)-1-(4-methoxyphenyl)ethyl)isoindolin-1-one]
101	COc1ccc(OCC(c2ccc(OC)c(OC)c2)N2Cc3cc(Br)ccc3C2=O)cc1 (stereo not drawn) [EU1180-526, 5-Bromo-2-(1-(3,4-dimethoxyphenyl)-2-(4-methoxyphenoxy)ethyl)isoindolin-1-one]
94	COc1ccc(OCC(c2ccc(OC)c(OC)c2)N2Cc3ccc(Br)cc3C2=O)cc1 (stereo not drawn) [EU1180-527, 6-Bromo-2-(1-(3,4-dimethoxyphenyl)-2-(4-methoxyphenoxy)ethyl)isoindolin-1-one]
99	COc1ccc(OCC(c2ccc(OC)cc2F)N2Cc3cc(Br)ccc3C2=O)cc1 (stereo not drawn) [EU1180-534, 5-Bromo-2-(1-(2-fluoro-4-methoxyphenyl)-2-(4-methoxyphenoxy)ethyl)isoindolin-1-one]
99	CC(C)Oc1ccc(C(COc2ccc(OC(F)(F)F)cc2)N2Cc3ccccc3C2=O)cc1 (stereo not drawn) [EU1180-538, 2-(1-(4-isopropoxyphenyl)-2-(4-(trifluoromethoxy)phenoxy)ethyl)isoindolin-1-one]
100	CC(C)Oc1ccc(C(COc2ccc(OC(F)(F)F)cc2)N2Cc3ccc(Cl)cc3C2=O)cc1 (stereo not drawn) [EU1180-540, 6-chloro-2-(1-(4-isopropoxyphenyl)-2-(4-(trifluoromethoxy)phenoxy)ethyl)isoindolin-1-one]
100	CC(C)Oc1ccc(C(COc2ccc(OC(F)(F)F)cc2)N2Cc3cc(Cl)ccc3C2=O)cc1 (stereo not drawn) [EU1180-541, 5-chloro-2-(1-(4-isopropoxyphenyl)-2-(4-(trifluoromethoxy)phenoxy)ethyl)isoindolin-1-one]
